{"source": "patent US20260232851A1", "about": "“METHODS FOR THE DETECTION AND DIAGNOSIS OF CANCERS ASSOCIATED WITH OVEREXPRESSION OF PSMA RECEPTOR” (CLARITY PHARMACEUTICALS LIMITED, priority 2023, published 2026)", "key": {"PSMA receptor [1]": {"biological_target": "T1, PSMA receptor (Homo sapiens, UniProt Q04609)", "T1 construct": "localises at sites that overexpress the PSMA receptor and are indicative of a cancer; from tissue; host or cells: Primary prostate cancer and metastatic lesions (lymph node, bone, prostatic bed) in living patients", "T1 sequence (Q04609 whole entry)": "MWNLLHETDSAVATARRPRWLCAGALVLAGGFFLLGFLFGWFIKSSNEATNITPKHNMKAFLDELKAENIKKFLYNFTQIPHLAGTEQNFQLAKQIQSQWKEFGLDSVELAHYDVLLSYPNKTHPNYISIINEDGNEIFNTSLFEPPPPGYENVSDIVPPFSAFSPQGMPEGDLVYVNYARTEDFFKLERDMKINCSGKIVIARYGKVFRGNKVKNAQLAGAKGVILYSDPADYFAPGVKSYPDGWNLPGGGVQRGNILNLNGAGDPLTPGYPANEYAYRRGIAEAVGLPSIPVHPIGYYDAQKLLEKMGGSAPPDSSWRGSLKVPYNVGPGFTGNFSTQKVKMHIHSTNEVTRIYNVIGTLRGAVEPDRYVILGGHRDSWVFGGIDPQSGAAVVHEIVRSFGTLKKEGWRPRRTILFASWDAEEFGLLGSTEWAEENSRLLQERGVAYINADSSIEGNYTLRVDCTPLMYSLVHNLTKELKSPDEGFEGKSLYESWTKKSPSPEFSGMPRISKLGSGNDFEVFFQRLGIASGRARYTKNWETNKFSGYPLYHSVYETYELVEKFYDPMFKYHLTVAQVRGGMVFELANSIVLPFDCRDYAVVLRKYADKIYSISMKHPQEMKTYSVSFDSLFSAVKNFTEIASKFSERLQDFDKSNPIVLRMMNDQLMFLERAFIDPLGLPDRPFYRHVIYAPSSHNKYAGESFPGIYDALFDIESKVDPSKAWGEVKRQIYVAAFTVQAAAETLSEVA", "experiment": "Blinded central reader detection of primary prostate cancer and lesions on PET/CT", "format": "in vivo", "conditions": "for % TPR (True Positive Rate), detection of primary prostate cancer: 200 MBq ^64Cu-Sar-bisPSMA; for % FNR (False Negative Rate): indeterminate results analysed as negative; for Detection of secondary lesion in lymph node by PET/CT (FIG. 3): same subject imaged with both tracers", "protocol": "Patients with untreated, histopathology-proven, intermediate- to high-risk PC, planned for radical prostatectomy underwent ^68Ga-PSMA-11 PET/CT per institutional practice and were subsequently allocated to 1 out of 3 dose cohorts (1:1:3) to receive either 100 MBq, 150 MBq or 200 MBq of ^64Cu-SAR-bisPSMA, respectively. The specified dose of ^64Cu-Sar-bisPSMA was administered to each patient as a single bolus IV injection. […] PET/CT scans at other times after injection of the compound were acquired as required.\nPatients were scanned using the standard clinical whole-body PET/CT acquisition protocol defined for each clinical site and in accordance with the Image Acquisition Manual, which contains details of scan acquisition, processing parameters and quality assurance procedures. The same scanner was used for each visit. Typical imaging acquisition parameters are below:\nTwo independent, blinded, central readers assessed the detection of primary PC on the 200 MBq ^64Cu-SAR-bisPSMA PET/CTs as the primary endpoint. To compare the intensity of lesions on ^68Ga-PSMA-11 and ^64Cu-SAR-bisPSMA PET, both readers determined the SUVs (SUVmax, SUVmean) and tumour-to-background ratio (ratio of lesion SUVmax and background SUVmean) in up to 5 concordant lesions between ^68Ga-PSMA-11 and ^64Cu-SAR-bisPSMA PET/CT as an exploratory endpoint.\nTable 5 compares the number of positive, negative and indeterminate images as assessed by each reader. Reader 1 detected primary prostate cancer in 100% of patients to whom 200 MBq of ^64Cu-Sar-bisPSMA was administered, while Reader 2 detected 85.7% of patients. This is in contrast to 77.8% and 83.3%, respectively, when ^68Ga-PSMA-11 was administered.\nThe number of lesions detected by each reader with imaging by either ^64Cu-Sar-bisPSMA or ^68Ga-PSMA-11 was evaluated. For both readers, the total number of lesions, the mean and median number of lesions detected as a result of imaging by ^64Cu-Sar-bisPSMA was higher when compared with imaging by ^68Ga-PSMA-11, with the difference in these values being statistically significant."}, "LNCap tumor": {"system": "LNCap tumor", "experiment": "Ex vivo tumor uptake in LNCap tumor bearing NSG mice", "source_text": "Ex vivo tumor uptake expressed as percentage injected activitiy per gram of tissue (% lAg) (mean±/−SEM, n=3/group) in LNCap tumor bearing NSG mice following injection of either monomeric [^64Cu]Cu-SarPSMA (2 MBq, 0.9 nmol of peptide) or dimeric [^64Cu]Cu-Sar-bisPSMA (2 MBq, 0.2 nmol of peptide)."}, "PSMA receptor [2]": {"biological_target": "T1, PSMA receptor", "experiment": "Same-day (Day 0) versus next-day (Day 1) PET imaging of patients", "format": "in vivo"}, "[3]": {"conditions": "Reader 1, 200 MBq cohort, scans/evaluable scans"}, "[4]": {"conditions": "Reader 2, 200 MBq cohort, 4 ^64Cu scans excluded as non-evaluable"}, "[5]": {"conditions": "next-day imaging, Day 1, same subject"}}, "note": "“Also recorded” adds a separate entry of the source. Marks after values point to notes of the source that are not given here.", "data": [{"substance": "Sar-bisPSMA [^64Cu-SAR-bisPSMA]", "values": [{"measurement": "Mean Difference in number of lesions (^64Cu − ^68Ga)", "setting": "PSMA receptor [1]; 200 MBq Cohort, Reader 1", "value": 0.28}, {"measurement": "Mean Number of Lesions per Participant", "setting": "PSMA receptor [1]; 200 MBq Cohort, Reader 1", "value": 2.3}, {"measurement": "Median Difference in number of lesions (^64Cu − ^68Ga)", "setting": "PSMA receptor [1]; 200 MBq Cohort, Reader 1", "value": 0.0}, {"measurement": "Median Number of Lesions per Participant", "setting": "PSMA receptor [1]; 200 MBq Cohort, Reader 1", "value": 2}, {"measurement": "Total # of Lesions Detected (all participants)", "setting": "PSMA receptor [1]; 200 MBq Cohort, Reader 1", "value": 41}, {"measurement": "Mean Difference in number of lesions (^64Cu − ^68Ga)", "setting": "PSMA receptor [1]; 200 MBq Cohort, Reader 2", "value": 0.64}, {"measurement": "Mean Number of Lesions per Participant", "setting": "PSMA receptor [1]; 200 MBq Cohort, Reader 2", "value": 2.2}, {"measurement": "Median Difference in number of lesions (^64Cu − ^68Ga)", "setting": "PSMA receptor [1]; 200 MBq Cohort, Reader 2", "value": 0.0}, {"measurement": "Median Number of Lesions per Participant", "setting": "PSMA receptor [1]; 200 MBq Cohort, Reader 2", "value": 2}, {"measurement": "Total # of Lesions Detected (all participants)", "setting": "PSMA receptor [1]; 200 MBq Cohort, Reader 2", "value": 31}, {"measurement": "Mean Difference in number of lesions (^64Cu − ^68Ga)", "setting": "PSMA receptor [1]; All Cohorts, Reader 1 (N = 29)", "value": 0.41}, {"measurement": "Mean Number of Lesions per Participant", "setting": "PSMA receptor [1]; All Cohorts, Reader 1 (N = 29)", "value": 2.2}, {"measurement": "Median Difference in number of lesions (^64Cu − ^68Ga)", "setting": "PSMA receptor [1]; All Cohorts, Reader 1 (N = 29)", "value": 0.0}, {"measurement": "Median Number of Lesions per Participant", "setting": "PSMA receptor [1]; All Cohorts, Reader 1 (N = 29)", "value": 2}, {"measurement": "Total # of Lesions Detected (all participants)", "setting": "PSMA receptor [1]; All Cohorts, Reader 1 (N = 29)", "value": 63}, {"measurement": "Mean Difference in number of lesions (^64Cu − ^68Ga)", "setting": "PSMA receptor [1]; All Cohorts, Reader 2 (N = 17)", "value": 0.52}, {"measurement": "Mean Number of Lesions per Participant", "setting": "PSMA receptor [1]; All Cohorts, Reader 2 (N = 17)", "value": 2}, {"measurement": "Median Difference in number of lesions (^64Cu − ^68Ga)", "setting": "PSMA receptor [1]; All Cohorts, Reader 2 (N = 17)", "value": 0.0}, {"measurement": "Median Number of Lesions per Participant", "setting": "PSMA receptor [1]; All Cohorts, Reader 2 (N = 17)", "value": 4}, {"measurement": "Total # of Lesions Detected (all participants)", "setting": "PSMA receptor [1]; All Cohorts, Reader 2 (N = 17)", "value": 34}, {"measurement": "% TPR (True Positive Rate), detection of primary prostate cancer", "setting": "PSMA receptor [1]; Reader 1", "value": 100.0, "unit": "%"}, {"measurement": "Positive images (primary prostate cancer)", "setting": "PSMA receptor [1]; Reader 1, 200 MBq ^64Cu-Sar-bisPSMA cohort, scans/evaluable scans", "value": "18/18"}, {"measurement": "% TPR (True Positive Rate), detection of primary prostate cancer", "setting": "PSMA receptor [1]; Reader 1, listed as 64Cu-Sar-bisPSMA", "value": 100, "unit": "%"}, {"measurement": "Indeterminate images", "setting": "PSMA receptor [1]; [3]", "value": "0/18"}, {"measurement": "Negative images", "setting": "PSMA receptor [1]; [3]", "value": "0/18"}, {"measurement": "% FNR (False Negative Rate)", "setting": "PSMA receptor [1]; Reader 1", "value": 0.0, "unit": "%"}, {"measurement": "% TPR (True Positive Rate), detection of primary prostate cancer", "setting": "PSMA receptor [1]; Reader 2", "value": 85.7, "unit": "%"}, {"measurement": "Indeterminate images", "setting": "PSMA receptor [1]; [4]", "value": "2/14*"}, {"measurement": "Negative images", "setting": "PSMA receptor [1]; [4]", "value": "0/14*"}, {"measurement": "Positive images (primary prostate cancer)", "setting": "PSMA receptor [1]; [4]", "value": "12/14*"}, {"measurement": "% FNR (False Negative Rate)", "setting": "PSMA receptor [1]; Reader 2", "value": 14.3, "unit": "%"}, {"measurement": "Total, mean and median number of lesions detected compared with ^68Ga-PSMA-11", "setting": "PSMA receptor [1]; both readers", "value": "higher"}, {"measurement": "Detection of secondary lesion in lymph node by PET/CT (FIG. 3)", "setting": "PSMA receptor [1]", "value": "Detection of a secondary lesion"}, {"measurement": "Detection of secondary lesion in lymph node by PET/CT (FIG. 3)", "setting": "PSMA receptor [1]; listed as compound of Formula (I) complexed with ^64Cu", "value": "clearly identifies a lesion"}, {"measurement": "Amount retained at the tumor site relative to ^64Cu-SarPSMA (FIG. 1)", "setting": "LNCap tumor; 6 and 24 hours after administration", "value": "far greater"}, {"measurement": "Ex vivo tumor uptake relative to monomeric ^64Cu-Sar-PSMA (FIG. 1)", "setting": "LNCap tumor; 1 hour after administration, 2 MBq, n=3/group", "value": "approximately double"}, {"measurement": "Uptake and retention at tumors, dimer versus monomer (FIG. 1)", "setting": "LNCap tumor; mouse, in vivo", "value": "higher uptake and retention"}, {"measurement": "Increase of SUVmax, next-day compared to same-day imaging (FIG. 7)", "setting": "PSMA receptor [2]; Day 1 vs Day 0", "value": "more than double"}, {"measurement": "SUVmax Day 1 relative to previous day (FIG. 9)", "setting": "PSMA receptor [2]; Day 1 vs same day", "value": 4, "unit": "times"}, {"measurement": "Average SUVmax for the bone and pelvic lymph node lesions (FIG. 11B)", "setting": "PSMA receptor [2]; following day imaging, same patient", "value": 20.0}, {"measurement": "Lesion visualisation on PET (words)", "setting": "PSMA receptor [2]; next-day imaging (Day 1), FIGS. 8-12, listed as 64Cu Sar-bisPSMA", "value": "clearly identified a lesion"}, {"measurement": "Lesion visualisation on PET (words)", "setting": "PSMA receptor [2]; next-day imaging (Day 1), FIGS. 8-12, listed as 64Cu-Sar-bisPSMA", "value": "identified by three readers; also recorded: more positive lesions; also recorded: only visualised with imaging on the following day; also recorded: additional positive lesions"}, {"measurement": "Lesion visualisation on PET (words)", "setting": "PSMA receptor [2]; next-day imaging (Day 1), FIGS. 8-12, listed as compound of Formula (I) complexed with ^64Cu", "value": "successfully identifies a lesion"}, {"measurement": "SUVmax of lesion (FIG. 9C)", "setting": "PSMA receptor [2]; [5]", "value": 17.5}, {"measurement": "SUVmax of positive pelvic lymph node lesion (FIG. 7)", "setting": "PSMA receptor [2]; [5]", "value": 50.4}, {"measurement": "Average SUVmax for the bone and pelvic lymph node lesions (FIG. 11A)", "setting": "PSMA receptor [2]; same day imaging, one patient", "value": 9.8}, {"measurement": "Lesion visualisation on PET (words)", "setting": "PSMA receptor [2]; same-day imaging (Day 0), FIGS. 8-9, listed as 64Cu Sar-bisPSMA", "value": "negative"}, {"measurement": "Lesion visualisation on PET (words)", "setting": "PSMA receptor [2]; same-day imaging (Day 0), FIGS. 8-9, listed as 64Cu-Sar-bisPSMA", "value": "less apparent; also recorded: not visualised"}, {"measurement": "Lesion visualisation on PET (words)", "setting": "PSMA receptor [2]; same-day imaging (Day 0), FIGS. 8-9, listed as compound of Formula (I) complexed with ^64Cu", "value": "does not clearly visualise a lesion"}, {"measurement": "SUVmax of positive pelvic lymph node lesion (FIG. 7)", "setting": "PSMA receptor [2]; same-day imaging, Day 0, one subject", "value": 20.8}, {"measurement": "SUVmax of lesion (FIG. 9B)", "setting": "PSMA receptor [2]; same-day imaging, same subject", "value": 4.3}]}]}
